Data: article PMC6234094 (Bioorganic & medicinal chemistry, 2018)

What was measured:
QscR [1] = molecular target: T1, QscR (Pseudomonas aeruginosa, UniProt G3XD77); assay: QscR agonism, E. coli JLD271; format: cell-based; details: for Reduction in potency relative to OdDHL (1) in QscR: ratio of EC50 to that of OdDHL, QscR reporter; for QscR agonism, result in words: E. coli QscR reporter
LasR [2] = details: cited from earlier work
LasR [3] = molecular target: T2, LasR (Pseudomonas aeruginosa, UniProt P25084); assay: LasR agonism, E. coli JLD271; format: cell-based; details: for Loss in potency (EC50) relative to OdDHL (1) in LasR: ratio of EC50 to that of OdDHL, LasR reporter
T2 sequence (P25084 whole entry): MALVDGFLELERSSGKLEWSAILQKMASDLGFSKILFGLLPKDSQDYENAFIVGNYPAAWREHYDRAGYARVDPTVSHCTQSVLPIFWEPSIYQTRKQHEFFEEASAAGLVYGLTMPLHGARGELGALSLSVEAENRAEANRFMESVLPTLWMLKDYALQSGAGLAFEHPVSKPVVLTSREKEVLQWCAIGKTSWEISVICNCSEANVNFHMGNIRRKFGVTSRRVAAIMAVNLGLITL

QscR [4] = molecular target: T1, QscR; assay: QscR antagonism in competition with OdDHL, E. coli reporter assay; format: cell-based
LasR [5] = molecular target: T2, LasR; assay: LasR antagonism in competition with OdDHL, E. coli reporter assay; format: cell-based; details: dose response in competition against OdDHL (1)
QscR [6] = molecular target: T1, QscR; details: cited from earlier work

Compound | Reduction in potency relative to OdDHL (1) in QscR (QscR [1]) | LasR agonism, result in words (earlier report) (LasR [2]) | Loss in potency (EC50) relative to OdDHL (1) in LasR (LasR [3]) | QscR agonism, result in words (QscR [1]) | other results
CCCCCCCCCC(=O)CC(=O)N[C@H]1CCSC1=O [Compound 3] | five-fold less potent | agonize LasR comparably to OdDHL |  |  | 
CCCCCCCCCC(=O)CC(=O)N[C@H]1CCNC1=O [Compound 4] | > 200 fold |  | 10–20 fold |  | Potency in LasR relative to OdDHL based on EC50 (earlier report) (LasR [2]; less potent than OdDHL): about 100 fold
CCCCCCCCCC(=O)CC(=O)N[C@H]1CCCC1=O [Compound 5] | ~ 55 fold | retained agonistic activity in LasR but was not nearly as potent as OdDHL | 10–20 fold |  | 
CCCCCCCCCC(=O)CC(=O)NC1CCCC1 [Compound 6] | 24 fold | some agonistic activity | 100 fold |  | 
CCCCCCCCCC(=O)CC(=O)N[C@H]1CCOC1 [Compound 7] |  |  | 600 fold |  | 
CCCCCCCCCC(=O)CC(=O)N[C@H]1CCO[C@@H]1O [Compound 8] |  |  | ~ 1200 fold | very weak QscR agonist | Concentration at which LasR is agonized (earlier report) (LasR [2]; only at very high concentrations): 400 µM
CCCCCCCCCC(=O)CC(=O)NCC1CCCO1 (centres unmarked) [Compound 9] |  |  |  | negligible activity | IC50 (QscR [4]): > 250 µM
CCCCCCCCCCCS(=O)(=O)N[C@H]1CCOC1=O [Compound 10] |  |  |  | weak agonistic activity | LasR antagonism, result in words (LasR [5]): failed to antagonize LasR; LasR agonism, result in words (LasR [3]; E. coli LasR reporter): inactive; QscR activity, result in words (earlier report) (QscR [6]): mild agonist; LasR activity, result in words (earlier report) (LasR [2]): inactive
CCCCCCCCCC(=O)CC(=O)O[C@H]1CCOC1=O [Compound 11] |  |  |  |  | IC50 (QscR [4]): > 250 µM
